In patent US20250011368A1, “DLL3 TARGETING PEPTIDES AND CONSTRUCTS THEREOF” (MARIANA ONCOLOGY INC., priority 2023, published 2025):
Bridge positions count the residues as written; N and C are the ends. Square brackets hold non-standard residues; d marks the D form. Peptide text beside a SMILES is read from it. * marks the point of attachment. DOTA = O=C(O)CN1CCN(CC(=O)O)CCN(CC(=O)*)CCN(CC(=O)O)CC1; Trp(5-F) = N[C@@H](Cc1c[nH]c2ccc(F)cc12)C(=O)O; Trp(7-aza) = N[C@@H](Cc1c[nH]c2ncccc12)C(=O)O; Pro(trans-4-F) = O=C(O)[C@@H]1C[C@@H](F)CN1; 2Nal = N[C@@H](Cc1ccc2ccccc2c1)C(=O)O; 4Pal = N[C@@H](Cc1ccncc1)C(=O)O; Cha = N[C@@H](CC1CCCCC1)C(=O)O

Tests used:
human DLL3 = molecular target: T1, human DLL3 (Homo sapiens, UniProt Q9NYJ7); test: Affinity determination by Surface Plasmon Resonance (SPR); format: binding; settings: 25° C., biotinylated human DLL3 immobilized on streptavidin sensor chip, 1:1 binding model; read-out: SPR KD
T1 sequence (Q9NYJ7 27-618): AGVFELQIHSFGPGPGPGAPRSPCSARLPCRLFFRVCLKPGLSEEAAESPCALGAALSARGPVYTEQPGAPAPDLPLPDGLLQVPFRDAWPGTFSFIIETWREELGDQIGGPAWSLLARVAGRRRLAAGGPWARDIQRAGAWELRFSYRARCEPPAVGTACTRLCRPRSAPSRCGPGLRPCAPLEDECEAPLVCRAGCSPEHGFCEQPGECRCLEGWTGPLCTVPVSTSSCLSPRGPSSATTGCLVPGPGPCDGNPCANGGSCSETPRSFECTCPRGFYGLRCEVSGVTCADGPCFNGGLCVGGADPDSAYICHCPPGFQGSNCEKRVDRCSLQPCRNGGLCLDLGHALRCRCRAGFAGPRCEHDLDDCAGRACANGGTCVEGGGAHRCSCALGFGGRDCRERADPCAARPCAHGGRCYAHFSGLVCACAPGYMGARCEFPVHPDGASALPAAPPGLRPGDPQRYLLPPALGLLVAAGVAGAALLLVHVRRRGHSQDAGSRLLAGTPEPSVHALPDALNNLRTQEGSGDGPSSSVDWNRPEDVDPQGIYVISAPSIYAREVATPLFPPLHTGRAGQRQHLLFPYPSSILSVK
Summary of the method: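 Kinetic and affinity constants were derived by fitting sensorgrams to a 1:1 binding model. Graded compound concentrations flowed at 100 μL/minute in 20 mM phosphate running buffer with 2% DMSO over streptavidin-immobilized biotinylated human DLL3, reference-subtracted.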

SHP-77 cells = test: Cell binding (total uptake) of [177Lu]Lu-test peptide, SHP-77 cells; format: cell-based; settings: SHP77 cells, 1 hour at 37° C., bound fraction
Experimental: (§1) [^177Lu]LuCl3 was received from venders in HCl solution. For every mCi of [^177Lu]LuCl3 added to the reaction vial (1.5 mL Eppendorf vial), ammonium acetate buffer (0.2 M, pH 4.9, 100 μL, containing 1% w/v ascorbic acid and 6% v/v ethanol) and peptide conjugate (1 nmol). A peptide conjugate of the present disclosure is also referred to herein as a “chelator-peptide”. The pH of the solution was determined to be approximately 5 by using pH strips. The reaction vial was incubated at 80° C., 700 RPM for 17-20 minutes. A sample from the reaction was analyzed by RP-HPLC using an Agilent Infinity II 1260 HPLC to determine reaction completion and radiochemical purity of [^177Lu]Lu-chelator-peptide. HPLC conditions: Waters XBridge BEH C18 Column, 130 Å, 3.5 um, 4.6 mm×250 mm; mobile phase: Solvent A=water (with 0.1% formic acid), solvent B=acetonitrile (with 0.1% formic acid). Gradients: 25-45% B in 10 minutes, 45-65% B in 12 minutes, 65-90% in 6 minutes at a flow rate of 0.5 mL/minute. Required amounts of the product was formulated in 1% PBSA for cell studies.
(§2) The study was conducted using SHP-77, CT26.WT, and CT26.DLL3 cells (Table 7) Adherent cell studies: The cells were cultured in appropriate culture media (20 mL) in tissue culture treated T150 flasks at 37° C. and 5% CO2. Adherent cells were detached (60-70% confluent) using 5 mL Versene at 37° C. for 3 minutes. After confirming the viability using countess and count of detached cells using Trypan blue, the cells were centrifuged at 4° C. for 5 minutes (1,000 rpm). The cell pellet obtained was washed once with PBS and resuspended in 1% PBSA to obtain the desired cell concentration (5-25 million cells/mL).
Suspension cell studies: The cells were cultured in appropriate culture media (20 mL) in tissue culture treated T150 flasks at 37° C. and 5% CO2. After confirming the viability and count of detached cells using Trypan blue, the cells were centrifuged at 4° C. for 5 minutes (1,000 rpm). The cell pellet obtained was washed once with PBS and resuspended in 1% PBSA to obtain the desired cell concentration (5-25 million cells/mL).
(§3) Cell numbers used for the assay were in the range of 5 million cells/condition −25 million cells/condition.
(§4) Total uptake: Cells were incubated with 300 μL (0.8 μCi) of the incubation buffer (containing radiolabeled peptide [^177Lu] Lu-test peptide) for 1 hour at 37° C. (Table 8). Post incubation, the cells were pelleted and washed 2 times using cold PBS+1% BSA. The supernatant and washes were combined and counted together as “unbound fraction” in a gamma counter. The cells were then resuspended in 300 μL of 1% PBS+1% BSA and counted in the gamma counter as “bound fraction”.
(§5) In these Tables, “A” represents %≤25; “B” represents 25<%≤50; “C” represents %>50.

SHP-77 tumors = test: Ex vivo biodistribution of radiolabeled peptides in nude mice bearing SHP-77 tumors; settings: [177Lu]Lu labelling, nude mice bearing SHP-77 tumors (n = 3), 24 hours post-injection
Summary of the method: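 Nude mice bearing SHP-77 xenografts (200-400 mm^3) or tumor-naïve mice (5-7 weeks) received an intravenous tail-vein bolus of [^177Lu]Lu-peptide and were euthanized at pre-set time points. Tissues were weighed and gamma-counted, with counts decay-corrected to injection time. Values are % IA/g per tissue from the injected activity of each mouse.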

CT26.DLL3 cells [1] = test: Cell binding (total uptake) of [177Lu]Lu-test peptide, CT26.DLL3 cells; format: cell-based; settings: 1 hour at 37° C.
Summary of the method: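 CT26.DLL3 cells (5–25 million/condition) in 1% PBSA incubated 1 h at 37°C with [177Lu]Lu-labelled peptide (0.8 μCi in 300 μL), radiolabelled at pH ~5, 80°C. Cells pelleted, washed twice with cold PBS+1% BSA; bound and unbound fractions gamma-counted, uptake binned as ≤25%, 25–50%, >50%.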

CT26.DLL3 cells [2] = test: Internalization (out of bound fraction) of [177Lu]Lu-test peptide, CT26.DLL3 cells; format: cell-based; settings: 1 hour at 37° C., glycine pH 2.5 wash
Experimental: as §1, §2, §3, §4
Internalization: The resuspended cells in 300 μl of 1% PBSA and counted in the gamma counter as “bound fraction” were collected in 1.5 mL Eppendorf tube and pelleted. The pelleted cells were incubated with 300 μl of 50 mM Glycine pH=2.5 for 3 minutes and then pelleted discarding the supernatant. This process was repeated one more time. The pelleted cells were washed with 300 μl of cold 1% PBSA and then resuspended in 300 μl 0.3M NaOH. This was counted in the gamma counter as “internalized fraction”.
as §5

[3] = molecular target: DLL3 on CT26.DLL3 cells (Homo sapiens (Human)) (UniProt Q9NYJ7); test: 177Lu-peptide bound to CT26.DLL3 cells, gamma counting; letter grade, key in paragraph 629
[4] = molecular target: T2, Biotinylated human DLL3 (Delta Like Canonical Notch Ligand 3) (human, UniProt Q9NYJ7 27-492, limits assumed, biotinylated (site not stated)); test: SPR; letter grade, key in paragraph 614
T2 construct: also called Delta-like protein 3; biotinylated target ligand human DLL3
T2 sequence: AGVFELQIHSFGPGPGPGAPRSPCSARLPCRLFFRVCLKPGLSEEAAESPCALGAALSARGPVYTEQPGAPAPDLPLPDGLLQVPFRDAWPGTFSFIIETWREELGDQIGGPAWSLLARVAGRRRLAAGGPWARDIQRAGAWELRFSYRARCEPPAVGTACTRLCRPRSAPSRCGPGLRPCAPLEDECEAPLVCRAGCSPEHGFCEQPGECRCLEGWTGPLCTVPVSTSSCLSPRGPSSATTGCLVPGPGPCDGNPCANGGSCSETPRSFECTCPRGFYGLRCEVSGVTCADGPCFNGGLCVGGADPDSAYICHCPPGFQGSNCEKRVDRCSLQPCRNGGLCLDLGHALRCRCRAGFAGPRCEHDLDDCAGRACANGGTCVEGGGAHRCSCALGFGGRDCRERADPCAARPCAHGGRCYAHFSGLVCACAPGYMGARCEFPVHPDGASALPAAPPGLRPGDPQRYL
Experimental: Biotinylated target ligand human DLL3 was immobilized on a streptavidin sensor chip. A reference surface was set up for nonspecific binding and refractive index changes. For analysis of the kinetics of interactions, varying concentrations of samples were injected at a flow rate of 100 μL/minute using running buffer containing 20 mM phosphate buffer with 2.7 mM KCl, 137 mM NaCl, 0.05% Surfactant P20 and 2% DMSO. Sensorgram curves were fitted with 1:1 binding model, and affinity and kinetic parameters were obtained using Biacore Insight evaluation 4.0. software.

## CC[C@H](C)[C@H](NC(=O)[C@@H](NC(=O)[C@H](Cc1c[nH]c2ccccc12)NC(C)=O)[C@@H](C)O)C(=O)N[C@H]1CSSC[C@@H](C(=O)N[C@@H](Cc2c[nH]c3ccccc23)C(=O)N2CCC[C@H]2C(=O)N[C@H](CCCCNC(=O)CN2CCN(CC(=O)O)CCN(CC(=O)O)CCN(CC(=O)O)CC2)C(N)=O)NC(=O)[C@H](CC(=O)O)NC(=O)[C@H](Cc2cnc[nH]2)NC(=O)[C@H](Cc2c[nH]c3ccccc23)NC(=O)[C@H](CC(N)=O)NC(=O)[C@H](CC(N)=O)NC1=O [compound 23, Ac-W-T-I-C(3)-N-N-W-H-D-C(3)-W-P-[D-Lys(DOTA)]-NH2] (Ac-WTICNNWHDCWP[dK](DOTA)-NH2; disulfide 4-10)
Human DLL3
  Kd: 1 to 10 nM
SHP-77 cells
  % Binding: A (%≤25)
SHP-77 tumors
  kidney uptake (% IA/g): D (% IA/g > 10 in kidney)
  tumor uptake (% IA/g): A (0 < % IA/g ≤ 5 in tumor)
CT26.DLL3 cells [1]
  % Binding: A (%≤25)

## CC[C@H](C)[C@H](NC(=O)[C@@H](NC(=O)[C@H](Cc1c[nH]c2ccccc12)NC(C)=O)[C@@H](C)O)C(=O)N[C@H]1CSSC[C@@H](C(=O)N[C@@H](Cc2c[nH]c3ccccc23)C(=O)N2CCC[C@H]2C(=O)N[C@H](CCCCNC(=O)CN2CCN(CC(=O)O)CCN(CC(=O)O)CCN(CC(=O)O)CC2)C(N)=O)NC(=O)[C@H](CC(=O)O)NC(=O)[C@H](Cc2cnc[nH]2)NC(=O)[C@H](Cc2ccc3ccccc3c2)NC(=O)[C@H](CC(N)=O)NC(=O)[C@H](CC(N)=O)NC1=O [compound 75, Ac-W-T-I-C(3)-N-N-(2Nal)-H-D-C(3)-W-P-[D-Lys(DOTA)]-NH2] (Ac-WTICNN[2Nal]HDCWP[dK](DOTA)-NH2; disulfide 4-10)
Human DLL3
  Kd: 1 to 10 nM
CT26.DLL3 cells [2]
  % Internalization (out of bound fraction): B (25<%≤50)
SHP-77 cells
  % Binding: A (%≤25)
SHP-77 tumors
  kidney uptake (% IA/g): D (% IA/g > 10 in kidney)
  tumor uptake (% IA/g): A (0 < % IA/g ≤ 5 in tumor)
CT26.DLL3 cells [1]
  % Binding: B (25<%≤50)

## Ac-[Trp(5-F)]T[Cha]CNN[2Nal]HDC[Trp(7-aza)][Pro(trans-4-F)][dK](DOTA)-NH2 (disulfide 4-10; also: 177Lu complexed in the DOTA chelator) [[177Lu]Lu-labelled Cpd No. 245]
[3]
  % Binding: < 25%

B1: Cpd No. 252 (peptide)
peptide: Ac-WTICNN[2Nal]HDCWP[dK]-NH2
modifications: disulfide 4-10; not fully specified (residue 13); printed as Ac-W-T-I-C(3)-N-N-(2Nal)-H-D-C(3)-W-P-{D-Lys[PEG8-D-Lys(DOTA)-PEG12-COCH2Ph-4Br]}-NH2, disulfide C(3)-C(3)
[4]
  Kd: ≤ 1 nM

## Ac-WTICNN[2Nal][4Pal]DCWP[dK](DOTA)-NH2 (disulfide 4-10; also: natLu in the DOTA chelator, * = [natLu]Lu-labelled peptide) [[natLu]Lu-labelled Cpd No. 367]
[4]
  Kd: ≤ 1 nM

B2: Cpd No. 367 (peptide)
peptide: Ac-WTICNN[2Nal][4Pal]DCWP[dK](DOTA)-NH2
modifications: disulfide 4-10
SMILES: CC[C@H](C)[C@H](NC(=O)[C@@H](NC(=O)[C@H](Cc1c[nH]c2ccccc12)NC(C)=O)[C@@H](C)O)C(=O)N[C@H]1CSSC[C@@H](C(=O)N[C@@H](Cc2c[nH]c3ccccc23)C(=O)N2CCC[C@H]2C(=O)N[C@H](CCCCNC(=O)CN2CCN(CC(=O)O)CCN(CC(=O)O)CCN(CC(=O)O)CC2)C(N)=O)NC(=O)[C@H](CC(=O)O)NC(=O)[C@H](Cc2ccncc2)NC(=O)[C@H](Cc2ccc3ccccc3c2)NC(=O)[C@H](CC(N)=O)NC(=O)[C@H](CC(N)=O)NC1=O
[4]
  Kd: ≤ 1 nM

B3: Cpd No. 451 (peptide)
peptide: Ac-WTICKN[2Nal]HDCWP[dK](DOTA)-NH2
modifications: disulfide 4-10
SMILES: CC[C@H](C)[C@H](NC(=O)[C@@H](NC(=O)[C@H](Cc1c[nH]c2ccccc12)NC(C)=O)[C@@H](C)O)C(=O)N[C@H]1CSSC[C@@H](C(=O)N[C@@H](Cc2c[nH]c3ccccc23)C(=O)N2CCC[C@H]2C(=O)N[C@H](CCCCNC(=O)CN2CCN(CC(=O)O)CCN(CC(=O)O)CCN(CC(=O)O)CC2)C(N)=O)NC(=O)[C@H](CC(=O)O)NC(=O)[C@H](Cc2c[nH]cn2)NC(=O)[C@H](Cc2ccc3ccccc3c2)NC(=O)[C@H](CC(N)=O)NC(=O)[C@H](CCCCN)NC1=O
[4]
  Kd: ≤ 1 nM
